Experimental data from patent US20250059180A1 (DONG WHA PHARM. CO., LTD., priority 2022, published 2025).
pIC50: −log10 of the molar value. Where two headings read alike, the source gives them in different places.

Test system: Pfeiffer cells, lymphoma cells having EZH2 mutation (A677G)
Assay: Proliferation inhibition of cells of hematologic malignancies (CCK-8, 11 days)
Assay type: cell-based
Conditions: 11 days culture, read-out: Cell proliferation inhibitory effect (IC50)
Method in brief: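 Pfeiffer lymphoma cells (EZH2 A677G) in RPMI1640 with 10% FBS were seeded at 10,000 cells/well and exposed to test material for 11 days, with compound replaced every 3–4 days. Viability was read by CCK-8 absorbance at 450 nm, and IC50 was derived by non-linear regression curve fitting.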

| pIC50 | pIC50 (Homo sapiens, Pfeiffer, 264 h) | Compound |
| --- | --- | --- |
| ≤ 7.00 |  | CCN1CCC(C2(C)Oc3c(-c4ccc(N5CCOCC5)nc4)cc(C(=O)NCc4c(SC)cc(C)[nH]c4=O)c(C)c3O2)CC1 (single isomer, unassigned) [Compound 67, 2-(1-ethylpiperidin-4-yl)-2,4-dimethyl-N-((6-methyl-4-(methylthio)-2-oxo-1,2-dihydropyridin-3-yl)methyl)-7-(6-morpholinopyridin-3-yl)benzo[d][1,3]dioxole-5-carboxamide] |
|  | ≥ 8.00 | CSc1cc(C)[nH]c(=O)c1CNC(=O)c1cc(-c2ccc(N3C[C@@H](C)O[C@@H](C)C3)nc2)c2c(c1C)OC(C)([C@H]1CC[C@H](N(C)CCc3ccccc3)CC1)O2 (stereo partly drawn) [Compound 112, 7-(6-((2S,6R)-2,6-dimethylmorpholino)pyridin-3-yl)-2,4-dimethyl-2-(trans-4-(methyl(phenethyl)amino)cyclohexyl)-N-((6-methyl-4-(methylthio)-2-oxo-1,2-dihydropyridin-3-yl)methyl)benzo[d][1,3]dioxole-5-carboxamide] |
|  | ≤ 7.00 | CSc1cc(C)[nH]c(=O)c1CNC(=O)c1cc(-c2ccc3c(c2)OC(F)(F)O3)c2c(c1C)OC(C)(C1CCN(CC(F)(F)F)CC1)O2 (stereo not shown) [Compound 93, 2′,2′-difluoro-2,7-dimethyl-N-((6-methyl-4-(methylthio)-2-oxo-1,2-dihydropyridin-3-yl)methyl)-2-(1-(2,2,2-trifluoroethyl)piperidin-4-yl)-[4,5′-bibenzo[d][1,3]dioxol]-6-carboxamide] |
|  | 7.00 to 8.00 | COc1ccc(F)cc1-c1cc(C(=O)NCc2c(SC)cc(C)[nH]c2=O)c(C)c2c1OC(C)([C@H]1CC[C@H](N(C)C)CC1)O2 (stereo partly drawn) [Compound 12, 2-(trans-4-(dimethylamino)cyclohexyl)-7-(5-fluoro-2-methoxyphenyl)-2,4-dimethyl-N-((6-methyl-4-(methylthio)-2-oxo-1,2-dihydropyridin-3-yl)methyl)benzo[d][1,3]dioxole-5-carboxamide] |
|  | ≥ 8.00 | CSc1cc(C)[nH]c(=O)c1CNC(=O)c1cc(-c2cnc(N3CCOCC3)nc2)c2c(c1C)OC(C)(C1CCN(CC(F)(F)F)CC1)O2 (stereo not shown) [Compound 68, 2,4-dimethyl-N-((6-methyl-4-(methylthio)-2-oxo-1,2-dihydropyridin-3-yl)methyl)-7-(2-morpholinopyrimidin-5-yl)-2-(1-(2,2,2-trifluoro)piperidin-4-yl)benzo[d][1,3]dioxole-5-carboxamide] |
| ≥ 8.00 |  | CCN1CCC(C2(C)Oc3c(-c4cnc(N(C)CC)nc4)cc(C(=O)NCc4c(SC)cc(C)[nH]c4=O)c(C)c3O2)CC1 (single isomer, unassigned) [Compound 83, 7-(2-(ethyl(methyl)amino)pyrimidin-5-yl)-2-(1-ethylpiperidin-4-yl)-2,4-dimethyl-N-((6-methyl-4-(methylthio)-2-oxo-1,2-dihydropyridin-3-yl)methyl)benzo[d][1,3]dioxole-5-carboxamide] |
|  | ≤ 7.00 | CSc1cc(C)[nH]c(=O)c1CNC(=O)c1cc(-c2ccc(N3CCCCC3)nc2)c2c(c1C)OC(C)(C1CCN(CC(F)(F)F)CC1)O2 (stereo not shown) [Compound 91, 2,4-dimethyl-N-((6-methyl-4-(methylthio)-2-oxo-1,2-dihydropyridin-3-yl)methyl)-7-(6-(piperidin-1-yl)pyridin-3-yl)-2-(1-(2,2,2-trifluoroethyl)piperidin-4-yl)benzo[d][1,3]dioxole-5-carboxamide] |
|  | ≥ 8.00 | CSc1cc(C)[nH]c(=O)c1CNC(=O)c1cc(-c2cnc(N3CCCCC3)nc2)c2c(c1C)OC(C)([C@H]1CC[C@H](N(C)CC(F)(F)F)CC1)O2 (stereo partly drawn) [Compound 21, 2,4-dimethyl-2-(trans-4-(methyl(2,2,2-trifluoroethyl)amino)cyclohexyl)-N-((6-methyl-4-(methylthio)-2-oxo-1,2-dihydropyridin-3-yl)methyl)-7-(2-(piperidin-1-yl)pyrimidin-5-yl)benzo[d][1,3]dioxole-5-carboxamide] |
|  | ≥ 8.00 | CSc1cc(C)[nH]c(=O)c1CNC(=O)c1cc(-c2ccc(F)cc2)c2c(c1C)OC(C)([C@H]1CC[C@H](N(C)C)CC1)O2 (stereo partly drawn) [Compound 10, 2-(trans-4-(dimethylamino)cyclohexyl)-7-(4-fluorophenyl)-2,4-dimethyl-N-((6-methyl-4-(methylthio)-2-oxo-1,2-dihydropyridin-3-yl)methyl)benzo[d][1,3]dioxole-5-carboxamide] |
| ≥ 8.00 |  | CSc1cc(C)[nH]c(=O)c1CNC(=O)c1cc(-c2cnc(N3CCOCC3)nc2)c2c(c1C)OC(C)(C1CCN(CC(F)F)CC1)O2 (single isomer, unassigned) [Compound 71, 2-(1-(2,2-difluoroethyl)piperidin-4-yl)-2,4-dimethyl-N-((6-methyl-4-(methylthio)-2-oxo-1,2-dihydropyridin-3-yl)methyl)-7-(2-morpholinopyrimidin-5-yl)benzo[d][1,3]dioxole-5-carboxamide] |
|  | ≥ 8.00 | CSc1cc(C)[nH]c(=O)c1CNC(=O)c1cc(-c2ccc(N3C[C@@H](C)O[C@@H](C)C3)nc2)c2c(c1C)OC(C)([C@H]1CC[C@H](N(C)C(C)C)CC1)O2 (stereo partly drawn) [Compound 110, 7-(6-((2S,6R)-2,6-dimethylmorpholino)pyridin-3-yl)-2-(trans-4-(isopropyl(methyl)amino)cyclohexyl)-2,4-dimethyl-N-((6-methyl-4-(methylthio)-2-oxo-1,2-dihydropyridin-3-yl)methyl)benzo[d][1,3]dioxole-5-carboxamide] |
|  | ≥ 8.00 | COc1ccc(-c2cc(C(=O)NCc3c(SC)cc(C)[nH]c3=O)c(C)c3c2OC(C)(C2CCN(CC(F)(F)F)CC2)O3)cn1 (stereo not shown) [Compound 36, 7-(6-methoxypyridin-3-yl)-2,4-dimethyl-N-((6-methyl-4-(methylthio)-2-oxo-1,2-dihydropyridin-3-yl)methyl)-2-(1-(2,2,2-trifluoroethyl)piperidin-4-yl)benzo[d][1,3]dioxole-5-carboxamide] |
|  | ≤ 7.00 | CCCCN(C)c1ncc(-c2cc(C(=O)NCc3c(SC)cc(C)[nH]c3=O)c(C)c3c2OC(C)(C2CCN(CC(F)(F)F)CC2)O3)cn1 (stereo not shown) [Compound 99] |
|  | ≥ 8.00 | COCCN(C)[C@H]1CC[C@H](C2(C)Oc3c(-c4ccc(OC)nc4)cc(C(=O)NCc4c(SC)cc(C)[nH]c4=O)c(C)c3O2)CC1 (stereo partly drawn) [Compound 28, 2-(trans-4-((2-methoxyethyl)(methyl)amino)cyclohexyl)-7-(6-methoxypyridin-3-yl)-2,4-dimethyl-N-((6-methyl-4-(methylthio)-2-oxo-1,2-dihydropyridin-3-yl)methyl)benzo[d][1,3]dioxole-5-carboxamide] |
|  | ≥ 8.00 | CSc1cc(C)[nH]c(=O)c1CNC(=O)c1cc(-c2cnc(N3CCCCC3)nc2)c2c(c1C)OC(C)([C@H]1CC[C@H](N(C)C)CC1)O2 (stereo partly drawn) [Compound 4, 2-(trans-4-(dimethylamino)cyclohexyl)-2,4-dimethyl-N-((6-methyl-4-(methylthio)-2-oxo-1,2-dihydropyridin-3-yl)methyl)-7-(2-(piperidin-1-yl)pyrimidin-5-yl)benzo[d][1,3]dioxole-5-carboxamide] |
|  | ≥ 8.00 | CCN(C)c1ncc(-c2cc(C(=O)NCc3c(SC)cc(C)[nH]c3=O)c(C)c3c2OC(C)(C2CCN(CC(F)F)CC2)O3)cn1 (single isomer, unassigned) [Compound 81, 2-(1-(2,2-difluoroethyl)piperidin-4-yl)-7-(2-(ethyl(methyl)amino)pyrimidin-5-yl)-2,4-dimethyl-N-((6-methyl-4-(methylthio)-2-oxo-1,2-dihydropyridin-3-yl)methyl)benzo[d][1,3]dioxole-5-carboxamide] |
